Drawing on patent US8168654B2 (priority 2003, dated 2012), this text covers Ki for 9 compounds.

Counter-ions that a name gives are not always drawn.

In the assay the target is T1, human muscarinic acetylcholine M3 receptor (Homo sapiens, UniProt P20309).
T1 construct: expressed in transfected cells; host or cells: CHO cells, stably transfected; membranes
T1 sequence (P20309 whole entry): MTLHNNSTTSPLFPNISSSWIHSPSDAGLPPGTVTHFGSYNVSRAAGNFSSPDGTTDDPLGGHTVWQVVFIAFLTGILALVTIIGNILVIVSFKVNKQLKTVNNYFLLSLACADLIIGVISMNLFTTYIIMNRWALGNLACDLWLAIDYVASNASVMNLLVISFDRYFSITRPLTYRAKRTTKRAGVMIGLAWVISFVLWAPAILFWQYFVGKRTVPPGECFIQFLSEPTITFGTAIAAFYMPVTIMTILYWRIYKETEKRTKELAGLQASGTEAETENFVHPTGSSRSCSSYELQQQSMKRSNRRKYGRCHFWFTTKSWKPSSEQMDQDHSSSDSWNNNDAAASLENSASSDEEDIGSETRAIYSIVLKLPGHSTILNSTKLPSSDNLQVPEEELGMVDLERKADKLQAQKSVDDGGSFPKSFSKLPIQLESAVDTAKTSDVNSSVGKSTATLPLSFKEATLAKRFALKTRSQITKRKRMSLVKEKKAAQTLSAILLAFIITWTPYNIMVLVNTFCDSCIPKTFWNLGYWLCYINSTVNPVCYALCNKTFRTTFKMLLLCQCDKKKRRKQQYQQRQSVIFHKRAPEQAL
The assay can be described thus: biochemical. Format: binding.
Turning to `O=C(C[N+]12CCC(CC1)[C@@H](OC(=O)C(O)(c1ccccc1)c1ccccc1)C2)Nc1ccon1` [Example 242, (R)-3-(2-Hydroxy-2,2-diphenyl-acetoxy)-1-(isoxazol-3ylcarbamoylmethyl)-1-azonia-bicyclo[2.2.2]octane bromide], the inhibition constant (Ki) came out at 0.3 nM.
Compound `O=C(Cc1ccccc1)NCCC[N+]12CCC(CC1)[C@@H](OC(=O)C(O)(c1ccccc1)c1ccccc1)C2` [Example 34, (R)-3-(2-Hydroxy-2,2-diphenyl-acetoxy)-1-(3-phenylacetylamino-propyl)-1-azonia-bicyclo[2.2.2]octane trifluoroacetate] showed a Ki of 2.3 nM. This Ki lies about 7.7-fold higher than the previous one.
Compound `O=C(C[N+]12CCC(CC1)[C@@H](OC(=O)C(O)(c1cccs1)c1cccs1)C2)Nc1cnccn1` [Example 159, (R)-3-(2-Hydroxy-2,2-di-thiophen-2-yl-acetoxy)-1-(pyrazin-2-ylcarbamoylmethyl)-1-azonia-bicyclo[2.2.2]octane bromide] returned a Ki of 0.7 nM.
The result for `O=C(C[N+]12CCC(CC1)[C@@H](OC(=O)C(O)(c1cccs1)c1cccs1)C2)Nc1ccccc1` [Example 76, (R)-3-(2-Hydroxy-2,2-di-thiophen-2-yl-acetoxy)-1-phenylcarbamoylmethyl-1-azonia-bicyclo[2.2.2]octane trifluoroacetate] reads 1.1 nM; that for `O=C(C[N+]12CCC(CC1)[C@@H](OC(=O)C(O)(c1cccs1)c1cccs1)C2)Nc1ccncn1` [Example 244, (R)-3-(2-Hydroxy-2,2-di-thiophen-2-yl-acetoxy)-1-(pyrimidin-4-ylcarbamoylmethyl)-1-azonia-bicyclo[2.2.2]octane bromide], 0.3 nM; that for `O=C(NCC[N+]12CCC(CC1)[C@@H](OC(=O)C(O)(c1ccccc1)c1ccccc1)C2)c1cnccn1` [Example 138, (R)-3-(2-Hydroxy-2,2-diphenyl-acetoxy)-1-(2-[{pyrazine-2-carbonyl)-amino]-ethyl}-1-azonia-bicyclo[2.2.2]octane trifluoroacetate], 2.2 nM.
The compound `O=C(C[N+]12CCC(CC1)[C@@H](OC(=O)C(O)(c1ccccc1)c1ccccc1)C2)Nc1ccccc1` [Example 52, (R)-3-(2-Hydroxy-2,2-diphenyl-acetoxy)-1-phenylcarbamoylmethyl-1-azonia-bicyclo[2.2.2]octane] returned a Ki of 1.9 nM.
Next, `O=C(NCC[N+]12CCC(CC1)[C@@H](OC(=O)C(O)(c1ccccc1)c1ccccc1)C2)C1(O)CC1` [Example 221, (R)-1-[2-[(1-Hydroxy-cyclo-propanecarbonyl)-amino]-ethyl]-3-(2-hydroxy-2,2-diphenyl-acetoxy)-1-azonia-bicyclo[2.2.2]-octane hexafluorophosphate]: 1.3 nM; `O=C(C[N+]12CCC(CC1)[C@@H](OC(=O)C(O)(c1ccccc1)c1ccccc1)C2)NCCc1cccs1` [Example 96, (R)-3-(2-Hydroxy-2,2-diphenyl-acetoxy)-1-[(2-thiophen-2-yl-ethylcarbamoyl)-methyl]-1-azonia-bicyclo[2.2.2]octane trifluoroacetate]: 4.6 nM.

One may read the Ki as the equilibrium dissociation constant of an inhibitor or competing ligand from its target. Lower therefore signals tighter binding.
